# Like-named read-outs stand apart in the source and are kept apart here.
# Legend:
# [1] = tested on: formation of free radicals from biological membrane undergoing oxidative stress (MDA formation); experiment: Formation of malonodialdehyde (MDA) test: antagonism of free radical formation from biological membrane undergoing oxidative stress; format: biochemical; details: in vitro; IC50 = dose of compound necessary to reduce by 50% the harmful effect
# Protocol: For the first experiment was chosen the test on formation of malonodialdehyde (MDA). Briefly, the capacity was tested of the above compounds to antagonize the formation of free radicals from biological membrane undergoing oxidative stress.
# (§1) of compound necessary to reduce by 50% the harmful effect to be added to the in vitro tests or to be administered to mice.
# [2] = tested on: convulsions and death induced by NMDA (N-methyl-D-aspartic acid); experiment: Antagonism of convulsions and death induced by NMDA (N-methyl-D-aspartic acid); format: in vivo; details: Mus musculus, ip, mice, IC50 = dose necessary to reduce by 50% the harmful effect
# Protocol: For the second experiment, on the contrary, the capacity of the compounds to antagonize the convulsions and death induced by NMDA (N-methyl-D-aspartic acid), an excitatory amino acid, was evaluated.
# as §1
# [3] = convulsions, read-out: CONVULSIONS from MDA IC50
# [4] = death, read-out: DEATH from MDA IC50
SMILES,IC50 [1],"ED50 [2, 3]","ED50 [2, 4]"
"NC(Cc1c[nH]c2cc(Cl)ccc12)C(=O)O (racemic) [6-Cl-TRP, 6-chloro-DL-tryptophan]",1000 µM,1000 mg/kg,200 mg/kg
"O=C(O)C(=O)Cc1c[nH]c2cccc(Cl)c12 [4-Cl-IPA, 4-chloro-indole-3-yl-pyruvic]",1000 µM,1000 mg/kg,200 mg/kg
"O=C(O)C(=O)Cc1c[nH]c2ccc(Cl)cc12 [5-Cl-IPA, 5-chloro-indole-3-yl-pyruvic]",500 µM,600 mg/kg,200 mg/kg
O=C(O)C(=O)Cc1c[nH]c2cc(Br)ccc12 [6-Br-IPA],50 µM,100 mg/kg,20 mg/kg
"O=C(O)C(=O)Cc1c[nH]c2cc(Cl)ccc12 [6-Cl-IPA, 6-chloro-indole-3-yl-pyruvic acid]",100 µM,20 mg/kg,10 mg/kg
"Cc1ccc2c(CC(=O)C(=O)O)c[nH]c2c1 [6-Me-IPA, 6-methyl-indole-3-yl-pyruvic]",60 µM,200 mg/kg,100 mg/kg
O=C(O)C(=O)Cc1c[nH]c2cc(O)ccc12 [6-OH-IPA],500 µM,800 mg/kg,200 mg/kg
COc1ccc2c(CC(=O)C(=O)O)c[nH]c2c1 [6-OMe-IPA],100 µM,200 mg/kg,100 mg/kg
O=C(O)C(=O)Cc1c[nH]c2c(Cl)cccc12 [7-Cl-IPA],400 µM,1000 mg/kg,200 mg/kg
"O=C(O)C(=O)Cc1c[nH]c2ccccc12 [IPA, 3-indolepyruvic acid]",10 µM,200 mg/kg,50 mg/kg
